Assay results from patent US11357230B2, “Herbicidal amides” (FMC Corporation, priority 2017, dated 2022).

Assays:
Format in all cases: in vivo
[1] = system: barnyardgrass (Echinochloa crus-galli); test: Test B flooded paddy test, barnyardgrass; settings: 250 g ai/ha, Flood (paddy water), 13 to 15 d
Description: (§1) Plant species in the flooded paddy test selected from rice (Oryza sativa), sedge, umbrella (small-flower umbrella sedge, Cyperus difformis), ducksalad (Heteranthera limosa), and barnyardgrass (Echinochloa crus-galli) were grown to the 2-leaf stage for testing. At time of treatment, test pots were flooded to 3 cm above the soil surface, treated by application of test compounds directly to the paddy water, and then maintained at that water depth for the duration of the test. Treated plants and controls were maintained in a greenhouse for 13 to 15 d, after which time all species were compared to controls and visually evaluated. Plant response ratings, summarized in Table B, are based on a scale of 0 to 100 where 0 is no effect and 100 is complete control. A dash (-) response means no test result.

rice (Oryza sativa) = test: Test B flooded paddy test, rice; settings: 250 g ai/ha, Flood (paddy water), 13 to 15 d
Description: as §1

[2] = system: barnyardgrass (Echinochloa crus-galli); test: Test A preemergence, barnyardgrass; settings: approximately 10 d
Text: (§2) Seeds of plant species selected from barnyardgrass (Echinochloa crus-galli), kochia (Kochia scoparia), ragweed (common ragweed, Ambrosia elatior), ryegrass, Italian (Italian ryegrass, Lolium multiflorum), foxtail, green (green foxtail, Setaria viridis), and pigweed (Amaranthus retroflexus) were planted into a blend of loam soil and sand and treated preemergence with a directed soil spray using test chemicals formulated in a non-phytotoxic solvent mixture which included a surfactant. At the same time, plants selected from these weed species and also wheat (Triticum aestivum), corn (Zea mays), blackgrass (Alopecurus myosuroides), and galium (catchweed bedstraw, Galium aparine) were planted in pots containing the same blend of loam soil and sand and treated with postemergence applications of test chemicals formulated in the same manner. Plants ranged in height from 2 to 10 cm and were in the one- to two-leaf stage for the postemergence treatment. Treated plants and untreated controls were maintained in a greenhouse for approximately 10 d, after which time all treated plants were compared to untreated controls and visually evaluated for injury. Plant response ratings, summarized in Table A, are based on a 0 to 100 scale where 0 is no effect and 100 is complete control. A dash (-) response means no test result.

kochia (Kochia scoparia) [3] = test: Test A preemergence, kochia; settings: approximately 10 d
Text: as §2

[4] = system: sedge, umbrella (small-flower umbrella sedge, Cyperus difformis); test: Test B flooded paddy test, umbrella sedge; settings: 250 g ai/ha, Flood (paddy water), 13 to 15 d
Description: as §1

[5] = system: ragweed (common ragweed, Ambrosia elatior); test: Test A postemergence, ragweed; settings: approximately 10 d
Text: as §2

Foxtail, Giant [6] = test: Test A preemergence, giant foxtail; settings: approximately 10 d
[7] = system: ryegrass, Italian (Italian ryegrass, Lolium multiflorum); test: Test A preemergence, Italian ryegrass; settings: approximately 10 d
Text: as §2

[8] = system: pigweed (Amaranthus retroflexus); test: Test A preemergence, pigweed; settings: approximately 10 d
Text: as §2

[9] = system: galium (catchweed bedstraw, Galium aparine); test: Test A postemergence, galium; settings: approximately 10 d
Text: as §2

[10] = system: wheat (Triticum aestivum); test: Test A postemergence, wheat; settings: approximately 10 d
Text: as §2

kochia (Kochia scoparia) [11] = test: Test A postemergence, kochia; settings: approximately 10 d
Text: as §2

[12] = system: ragweed (common ragweed, Ambrosia elatior); test: Test A preemergence, ragweed; settings: approximately 10 d
Text: as §2

corn (Zea mays) = test: Test A postemergence, corn; settings: approximately 10 d
Text: as §2

[13] = system: pigweed (Amaranthus retroflexus); test: Test A postemergence, pigweed; settings: approximately 10 d
Text: as §2

[14] = system: ryegrass, Italian (Italian ryegrass, Lolium multiflorum); test: Test A postemergence, Italian ryegrass; settings: approximately 10 d
Text: as §2

[15] = system: blackgrass (Alopecurus myosuroides); test: Test A postemergence, blackgrass; settings: approximately 10 d
Text: as §2

[16] = system: ducksalad (Heteranthera limosa); test: Test B flooded paddy test, ducksalad; settings: 250 g ai/ha, Flood (paddy water), 13 to 15 d
Description: as §1

[17] = system: barnyardgrass (Echinochloa crus-galli); test: Test A postemergence, barnyardgrass; settings: approximately 10 d
Text: as §2

Foxtail, Giant [18] = test: Test A postemergence, giant foxtail; settings: approximately 10 d

Compound: CN1C[C@H](c2ccc(C(F)(F)F)cc2)[C@@H](C(=O)Nc2cccc(F)c2F)C1=NN1CCOCC1 (relative stereo) [Compound 7]
- Plant response rating (scale of 0 to 100, 0 is no effect, 100 is complete control) [1]: 10
- Plant response rating (scale of 0 to 100, 0 is no effect, 100 is complete control) (rice (Oryza sativa)): 0
- Plant response rating (0 to 100 scale, 0 is no effect, 100 is complete control) ([2]; 31 g ai/ha): 10
- Plant response rating (0 to 100 scale, 0 is no effect, 100 is complete control) ([2]; 125 g ai/ha): 50
- Plant response rating (0 to 100 scale, 0 is no effect, 100 is complete control) (kochia (Kochia scoparia) [3]; 31 g ai/ha): 0
- Plant response rating (0 to 100 scale, 0 is no effect, 100 is complete control) (kochia (Kochia scoparia) [3]; 125 g ai/ha): 20
- Plant response rating (scale of 0 to 100, 0 is no effect, 100 is complete control) [4]: 0
- Plant response rating (0 to 100 scale, 0 is no effect, 100 is complete control) ([5]; 31 g ai/ha): 0
- Plant response rating (0 to 100 scale, 0 is no effect, 100 is complete control) ([5]; 125 g ai/ha): 50
- Plant response rating (0 to 100 scale, 0 is no effect, 100 is complete control) (Foxtail, Giant [6]; 31 g ai/ha): 50
- Plant response rating (0 to 100 scale, 0 is no effect, 100 is complete control) (Foxtail, Giant [6]; 125 g ai/ha): 90
- Plant response rating (0 to 100 scale, 0 is no effect, 100 is complete control) ([7]; 31 g ai/ha): 0
- Plant response rating (0 to 100 scale, 0 is no effect, 100 is complete control) ([7]; 125 g ai/ha): 0
- Plant response rating (0 to 100 scale, 0 is no effect, 100 is complete control) ([8]; 31 g ai/ha): 0
- Plant response rating (0 to 100 scale, 0 is no effect, 100 is complete control) ([8]; 125 g ai/ha): 10
- Plant response rating (0 to 100 scale, 0 is no effect, 100 is complete control) ([9]; 31 g ai/ha): 60
- Plant response rating (0 to 100 scale, 0 is no effect, 100 is complete control) ([9]; 125 g ai/ha): 70
- Plant response rating (0 to 100 scale, 0 is no effect, 100 is complete control) ([10]; 31 g ai/ha): 0
- Plant response rating (0 to 100 scale, 0 is no effect, 100 is complete control) ([10]; 125 g ai/ha): 10
- Plant response rating (0 to 100 scale, 0 is no effect, 100 is complete control) (kochia (Kochia scoparia) [11]; 31 g ai/ha): 0
- Plant response rating (0 to 100 scale, 0 is no effect, 100 is complete control) (kochia (Kochia scoparia) [11]; 125 g ai/ha): 60
- Plant response rating (0 to 100 scale, 0 is no effect, 100 is complete control) ([12]; 31 g ai/ha): 0
- Plant response rating (0 to 100 scale, 0 is no effect, 100 is complete control) ([12]; 125 g ai/ha): 0
- Plant response rating (0 to 100 scale, 0 is no effect, 100 is complete control) (corn (Zea mays); 31 g ai/ha): 0
- Plant response rating (0 to 100 scale, 0 is no effect, 100 is complete control) (corn (Zea mays); 125 g ai/ha): 0
- Plant response rating (0 to 100 scale, 0 is no effect, 100 is complete control) ([13]; 31 g ai/ha): 0
- Plant response rating (0 to 100 scale, 0 is no effect, 100 is complete control) ([13]; 125 g ai/ha): 60
- Plant response rating (0 to 100 scale, 0 is no effect, 100 is complete control) ([14]; 31 g ai/ha): 10
- Plant response rating (0 to 100 scale, 0 is no effect, 100 is complete control) ([14]; 125 g ai/ha): 30
- Plant response rating (0 to 100 scale, 0 is no effect, 100 is complete control) ([15]; 31 g ai/ha): 30
- Plant response rating (0 to 100 scale, 0 is no effect, 100 is complete control) ([15]; 125 g ai/ha): 30
- Plant response rating (scale of 0 to 100, 0 is no effect, 100 is complete control) [16]: 45
- Plant response rating (0 to 100 scale, 0 is no effect, 100 is complete control) ([17]; 31 g ai/ha): 0
- Plant response rating (0 to 100 scale, 0 is no effect, 100 is complete control) ([17]; 125 g ai/ha): 50
- Plant response rating (0 to 100 scale, 0 is no effect, 100 is complete control) (Foxtail, Giant [18]; 31 g ai/ha): 0
- Plant response rating (0 to 100 scale, 0 is no effect, 100 is complete control) (Foxtail, Giant [18]; 125 g ai/ha): 50
